What was measured:
[1] = biological target: T1, BCATm (Homo sapiens, UniProt O15382); conditions: cited from earlier work
T1 sequence (O15382 28-392): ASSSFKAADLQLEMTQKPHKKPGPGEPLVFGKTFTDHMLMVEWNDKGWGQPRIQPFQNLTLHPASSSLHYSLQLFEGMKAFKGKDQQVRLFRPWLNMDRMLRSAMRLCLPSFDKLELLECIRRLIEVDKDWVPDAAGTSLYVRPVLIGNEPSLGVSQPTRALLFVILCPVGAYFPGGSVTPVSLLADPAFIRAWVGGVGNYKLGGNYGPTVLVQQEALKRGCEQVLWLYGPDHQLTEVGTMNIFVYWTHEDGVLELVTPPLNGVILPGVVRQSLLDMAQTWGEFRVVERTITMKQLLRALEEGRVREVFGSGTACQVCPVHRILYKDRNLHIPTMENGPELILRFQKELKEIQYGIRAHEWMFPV

[2] = test system: freshly dissected rat retinas; assay: Synthesis of leucine in freshly dissected retinas; type: cell-based; conditions: data not shown
[3] = test system: ex vivo rat retinas; assay: CO2 fixation: H14CO3 incorporation into metabolites by ex vivo retinas; type: cell-based; conditions: for TCA cycle / Asp / Gln / Glu / Total / Lact: half retinas, 37°C, 25 mM H14CO3, 0.2 mM pyruvate, BCAA 0.2 mM each; for Lact: lactate peak includes pyruvate
Procedure: Sprague Dawley rats (200-400g) were used for all experiments. Rats were housed under a 12 hour light/dark cycle, and fed and watered ad libidum. After anaesthetizing the rats with-nembutal (IP), eyes were enucleated and retinas dissected in ice-cold buffer.
Freshly isolated half-retinas were preincubated at 37°C for 3 minutes in buffer A (pH 7.4) containing 118 mM NaCl, 4.7 mM KCl, 2.5 mM CaCl, 1.2 mM KH2PO4, 1.17 mM MgSO4, 20 mM HEPES, 5 mM glucose, 0.05 mM NH4Cl and 25 mM NaH^14CO3. Pyruvate (either 0.2 or 5mM) was also included in the buffer. 1 ml buffer as well as the gas phase within 20 ml vials were equilibrated with 95% O2, 5% CO2. Incubations were initiated by addition of 10 µCi/ml H^14CO3. The vessels were then immediately closed to the atmosphere. Most incubations continued for 20 minutes, although in some preliminary studies, times were varied from 10-60 minutes. Reactions were stopped by removing the half retinas from the buffer and placing them in 2% perchloric acid. The buffer was separately acidified with perchloric acid (final concentration 2%) and unreacted ^14CO2 was allowed to diffuse out of the acidified samples.
The total amount of product (non-volatile carbon 14 metabolites) was determined by measuring the radioactivity in aliquots of the medium and tissue samples. Metabolites in the extracts were separated by Dowex-1 acetate chromatography as previously described: Williamson, J.R., and Corkey, B. (1969) "Methods in Enzymology", Vol, 13, ed. Lowenstein, J.M. (Academic Press) pp 434-513, and quantified by scintillation counting. In most instances, individual metabolite carbon 14 data is reported as the sum of the radioactivity in the medium plus tissue extracts. Complete quantification of ^14C-metabolite amounts in both the retina and in the medium can be found below in Tables I and II.
The chromatographic procedure employed in this example separates glutamine, glutamate, aspartate, and lactic acid. The citric acid cycle intermediates remain on the Dowex columns and are estimated as the difference between the total counts in the sample and the counts that are eluted. Evidence of the validity of this procedure has been reported previously. Before subjecting samples to chromatography, ^14C-pyruvic acid in the samples was converted stoichiometrically to lactate by treating the samples with excess NADH and lactate dehydrogenase. Therefore the single lactate peak reported contains all carbon 14 in both lactate and pyruvate. To determine specific activity of glutamate and glutamine in the retinal samples, the mass amount of the glutamate was measured fluorometrically using a standard enzymatic procedure: Patel, M.S. (1989) in Neuromethods: Carbohydrate and Energy Metabolism, Vol II, eds. Boulton, A.A and Baker G.D. (The Humana Press, Inc.) pp 309-340. The mass amount of glutamine was measured after chromatographic separation from glutamate followed by a luminometric determination previously described. ATP and creatine phosphate were measured fluorometrically using an enzymatic assay.
Data are reported in text and figures by determining the dpm/mg in a particular metabolite and dividing by the specific activity of medium HCO3. Therefore all data are reported as nmoles of H^14CO3/mg protein for any given metabolite.

[4] = biological target: T2, BCATc (Homo sapiens, UniProt P54687); conditions: cited from earlier work
T2 sequence (P54687 1-386): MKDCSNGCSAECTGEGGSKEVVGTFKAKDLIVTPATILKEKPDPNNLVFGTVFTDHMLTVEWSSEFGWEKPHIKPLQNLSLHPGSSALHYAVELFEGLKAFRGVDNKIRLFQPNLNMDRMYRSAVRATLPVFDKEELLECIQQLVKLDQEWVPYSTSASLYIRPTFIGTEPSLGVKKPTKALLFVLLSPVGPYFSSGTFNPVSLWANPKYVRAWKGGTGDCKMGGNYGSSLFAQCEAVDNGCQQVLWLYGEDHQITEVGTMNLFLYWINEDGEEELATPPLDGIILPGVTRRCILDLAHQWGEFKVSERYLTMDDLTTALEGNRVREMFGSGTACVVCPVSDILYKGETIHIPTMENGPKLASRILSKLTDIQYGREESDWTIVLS

[5] = 0, 0.2, 1, or 5 mM GBP, 20 minutes, Figure 5
[6] = compartment in (retina), 20 min, GBP 1 mM
[7] = compartment out (medium), 20 min, GBP 1 mM
[8] = sum of medium plus tissue, 20 min, GBP 1 mM

## NCC1(CC(=O)O)CCCCC1 [GBP, gabapentin]
[1]
  inhibition of BCATm: not
[2]
  synthesis of leucine: inhibits
[3]; [5]
  extent of inhibition of the synthesis of ^14C-glutamate plus ^14C-glutamine on increasing the concentration over 1 mM: did not significantly increase
  formation of citric acid cycle intermediates, lactate and pyruvate: no influence
[3]; 1 mM GBP plus 200 µM each of leucine, isoleucine and valine
  formation of ^14C-glutamate plus ^14C-glutamine: 89 % of control
[3]; 1 mM GBP plus 200 µM each of leucine, isoleucine and valine, p<0.01 versus GBP alone
  formation of ^14C-glutamate plus ^14C-glutamine: 2.84 ± 1.15 nmol/mg
[3]; 1 mM GBP, 20 min, 0.2 mM pyruvate, p<0.001
  formation of ^14C-glutamate plus ^14C-glutamine: 71 % of control
[3]; 1 mM GBP, 20 min, 0.2 mM pyruvate, control 3.18 ± 0.12
  formation of ^14C-glutamate plus ^14C-glutamine: 2.26 ± 0.05 nmol/mg
[3]; 1 mM GBP, control 1.93 ± .06, increase not significant
  incorporation of carbon 14 into lactate and citric acid cycle intermediates: 2.12 ± 0.13 nmoles of H^14CO3/mg protein
[3]; GBP 1 mM
  H^14CO3 incorporation into lactate and citric acid cycle intermediates: without slowing
[3]; GBP 1 mM plus 0.6 mM BCAA
  Inhibition of de novo glutamate synthesis after addition of BCAA: reversed
[3]; Rattus norvegicus, GBP 1 mM, read-out: inhibited synthesis of ^14C-glutamate plus ^14C-glutamine from H^14CO3
  inhibition at 1000 µM: 31%
[3]; compartment in (retina), estimated as total counts minus eluted counts, 20 min, GBP 1 mM
  TCA cycle: 1.514 ± 0.103 nmoles of H^14CO3/mg protein
[3]; [6]
  Asp: 0.549 ± 0.019 nmoles of H^14CO3/mg protein
  Gln: 0.389 ± 0.026 nmoles of H^14CO3/mg protein
  Glu: 1.324 ± 0.025 nmoles of H^14CO3/mg protein
  Total: 3.902 ± 0.122 nmoles of H^14CO3/mg protein
  Lact: 0.089 ± 0.006 nmoles of H^14CO3/mg protein
[3]; [7]
  Asp: 0.035 ± 0.003 nmoles of H^14CO3/mg protein
  Gln: 0.545 ± 0.024 nmoles of H^14CO3/mg protein
  Glu: 0.008 ± 0.002 nmoles of H^14CO3/mg protein
  TCA cycle: 0 nmoles of H^14CO3/mg protein
  Total: 1.066 ± 0.028 nmoles of H^14CO3/mg protein
  Lact: 0.516 ± 0.030 nmoles of H^14CO3/mg protein
[3]; [8]
  Asp: 0.584 ± 0.022 nmoles of H^14CO3/mg protein
  Gln: 0.934 ± 0.036 nmoles of H^14CO3/mg protein
  Glu: 1.332 ± 0.025 nmoles of H^14CO3/mg protein
  TCA cycle: 1.514 ± 0.103 nmoles of H^14CO3/mg protein
  Total: 4.968 ± 0.028 nmoles of H^14CO3/mg protein
  Lact: 0.605 ± 0.028 nmoles of H^14CO3/mg protein
[4]
  inhibition of BCATc: inhibits

Source: EP1157000B1 (Warner-Lambert Company LLC, priority 1999, dated 2001)
